This passage reports EC50 results from US12583858B2 (Genentech, Inc., priority 2015, dated 2026).

In this assay the target is T1, TDO2 (Homo sapiens, UniProt P48775).
T1 construct: decreased levels of NFK in SW48 cells (high TDO expressing cells)
T1 sequence (P48775 whole entry): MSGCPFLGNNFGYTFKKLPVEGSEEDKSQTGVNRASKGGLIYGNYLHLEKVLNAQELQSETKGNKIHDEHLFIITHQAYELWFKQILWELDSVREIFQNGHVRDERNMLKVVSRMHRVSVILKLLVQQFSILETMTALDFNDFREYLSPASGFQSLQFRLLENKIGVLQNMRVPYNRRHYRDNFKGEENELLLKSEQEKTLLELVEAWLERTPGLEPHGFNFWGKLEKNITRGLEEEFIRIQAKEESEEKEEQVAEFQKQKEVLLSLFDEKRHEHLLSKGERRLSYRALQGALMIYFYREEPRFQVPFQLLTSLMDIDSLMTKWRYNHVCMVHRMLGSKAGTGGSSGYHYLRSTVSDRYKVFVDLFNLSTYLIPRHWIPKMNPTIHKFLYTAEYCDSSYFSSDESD
Kind of assay: TDO2 cell assay (NFK GreenScreen, SW48 cells). The class given is cell-based. The settings on record: SW48 cells (high TDO expressing), 200 uM tryptophan, 24 hours; Table 3; read-out: TDO2 Cell Fluor EC50.
One may read the EC50 as the concentration needed to bring the measured effect to its halfway point. As to `OC1CC2(COC2)C1C1c2ccccc2-c2cncn21` (single isomer, unassigned) [Example 87h], the EC50 was 11 µM.

Take `OC1c2ccccc2CC1C1c2ccccc2-c2cncn21` (single isomer, unassigned) [Example 19e]: the half-maximal effective concentration (EC50) was 2 µM. The same measure for `OC1c2cccnc2CCC1C1c2ccccc2-c2cncn21` (single isomer, unassigned) [Example 31f]: 0.082 µM.

Turning to `CS(=O)(=O)c1ccc2c(c1)CCC(C1c3ccccc3-c3cncn31)C2O` (single isomer, unassigned) [Example 36b], the concentration for a half-maximal effect (EC50) was 0.058 µM. In the case of `OC1CC2(COC2)C1C1c2ccccc2-c2cncn21` (single isomer, unassigned) [Example 87f], the EC50 was found to be 17 µM. The same measure for `OC1c2ccccc2CCC1C1c2ccccc2-c2cncn21` (single isomer, unassigned) [Example 102b]: 19 µM; for `CC(C)C(O)C1c2ccccc2-c2cncn21` (single isomer, unassigned) [Example 51a]: over 25 µM; for `NS(=O)(=O)c1ccc2c(c1)C(O)C(C1c3ccccc3-c3cncn31)CC2` (single isomer, unassigned) [Example 105c]: 0.077 µM. The same measure for `OC1CCC(F)(F)CC1C1c2ccccc2-c2cncn21` (single isomer, unassigned) [Example 18d, 4,4-difluoro-2-(5H-imidazo[5,1-a]isoindol-5-yl)cyclohexan-1-ol]: 8 µM; for `CC(=O)N1CCC(C2c3ccccc3-c3cncn32)C(O)C1` (single isomer, unassigned) [Example 09d, 1-(3-hydroxy-4-(5H-imidazo[5,1-a]isoindol-5-yl)piperidin-1-yl)ethan-1-one]: over 25 µM. The figure for `CCS(=O)(=O)N1CCC2(CC1)CC(C1c3ccccc3-c3cncn31)C2O` (single isomer, unassigned) [Example 114a] is 0.39 µM; for `Cc1cnn2c1C(O)C(C1c3ccccc3-c3cncn31)CC2` (single isomer, unassigned) [Example 159a] it is 0.27 µM. For the molecule `Cc1ccc2c(c1)C(C1COCC1O)n1cncc1-2` (single isomer, unassigned) [Example 110c], the 50% effective concentration (EC50) was determined as 3.9 µM. The same measure for `OC1COCCC1C1c2cccc(F)c2-c2cncn21` (single isomer, unassigned) [Example 99c]: over 25 µM.

Regarding `OCC(O)C1c2ccccc2-c2cncn21` (single isomer, unassigned) [Example 49d, 1-(5H-imidazo[5,1-a]isoindol-5-yl)ethane-1,2-diol], the EC50 is 1.44 µM. With `CC(C)(C)OC(=O)N1CCC(C2c3ccccc3-c3cncn32)C(O)C1` (single isomer, unassigned) [Example 10a, tert-butyl 3-hydroxy-4-(5H-imidazo[5,1-a]isoindol-5-yl)piperidine-1-carboxylate], the concentration for a half-maximal effect (EC50) stood at 2.1 µM.

In the case of `O[C@@H]1CCCC[C@@H]1[C@@H]1c2ccccc2-c2cncn21` [Example 03h, (1R,2R)-2-((R)-5H-imidazo[5,1-a]isoindol-5-yl)cyclohexan-1-ol], the half-maximal effective concentration (EC50) came out at 13 µM. Take `O=S(=O)(C1CC1)N1CC[C@@H]([C@@H]2c3ccccc3-c3cncn32)[C@H](O)C1` (single isomer, unassigned) [Example 81b]: the EC50 is over 25 µM. The figure for `O[C@@H]1CC[C@@H]1[C@@H]1c2ccccc2-c2cncn21` [Example 01a, (1R,2R)-2-((R)-5H-imidazo[5,1-a]isoindol-5-yl)cyclobutan-1-ol] is 14 µM; for `CC1(C)CCCCC1(O)C1c2ccccc2-c2cncn21` (single isomer, unassigned) [Example 164b] it is 7.5 µM; for `OC1c2nonc2CCC1C1c2ccccc2-c2cncn21` (single isomer, unassigned) [Example 163b] it is 0.06 µM. Turning to `CCS(=O)(=O)N1CCC2(CC1)CC(C1c3ccccc3-c3cncn31)C2O` (single isomer, unassigned) [Example 114c], the 50% effective concentration (EC50) came out at 15 µM. The same measure for `CC1(C)CCCC(C2c3ccccc3-c3cncn32)C1O` (single isomer, unassigned) [Example 24h]: 12 µM; for `O[C@@H]1c2c(F)cnn2CC[C@@H]1[C@@H]1c2ccccc2-c2cncn21` [Example 151a, (4S,5R)-3-fluoro-5-((R)-5H-imidazo[5,1-a]isoindol-5-yl)-4,5,6,7-tetrahydropyrazolo[1,5-a]pyridin-4-ol]: 0.52 µM; for `CN(C)C(=O)c1ccc2c(c1)CCC(C1c3ccccc3-c3cncn31)C2O` (single isomer, unassigned) [Example 98b]: 8.7 µM. The figure for `CC1(C)CCCC(C2c3ccccc3-c3cncn32)C1O` (single isomer, unassigned) [Example 24c] is 5.5 µM; for `OC1(C2c3ccccc3-c3cncn32)CCOCC1` (racemic) [Example 43, 4-(5H-imidazo[5,1-a]isoindol-5-yl)tetrahydro-2H-pyran-4-ol] it is 2.86 µM.

With `OC1CCCC1C1c2ccccc2-c2cncn21` (single isomer, unassigned) [Example 02h], the EC50 was over 25 µM. The same measure for `Cc1cc2n(n1)CCC(C1c3ccccc3-c3cncn31)C2O` (single isomer, unassigned) [Example 166b]: 0.27 µM. For the molecule `O=S1(=O)CC(O)C(C2c3ccccc3-c3cncn32)C1` (single isomer, unassigned) [Example 38d], the EC50 worked out at 3.8 µM. Take `CC(C)C(O)C1c2ccccc2-c2cncn21` (single isomer, unassigned) [Example 51c]: the EC50 was 0.11 µM.

As to `CN(C)C(=O)c1ccc2c(c1)CCC(C1c3ccccc3-c3cncn31)C2O` (single isomer, unassigned) [Example 98h], the EC50 is 9.8 µM. Turning to `N#Cc1cnc2c(c1)CCC(C1c3ccccc3-c3cncn31)C2O` (single isomer, unassigned) [Example 107d], the EC50 is 2.4 µM. As for `CC1(C)CCCC(C2c3ccccc3-c3cncn32)C1O` (single isomer, unassigned) [Example 24g], the concentration giving a half-maximal response (EC50) came out at 0.34 µM. Take `CS(=O)(=O)N1CCC2(CCC(C3c4ccccc4-c4cncn43)C2O)CC1` (single isomer, unassigned) [Example 180c]: the 50% effective concentration (EC50) was 0.098 µM. The figure for `CS(=O)(=O)N1CCC(O)C(C2c3ccccc3-c3cncn32)CC1` (single isomer, unassigned) [Example 92a] is 1.2 µM. The figure for `O[C@@H]1c2ccnn2CC[C@@H]1[C@@H]1c2ccccc2-c2cncn21` [Example 56c, (4S,5R)-5-((R)-5H-imidazo[5,1-a]isoindol-5-yl)-4,5,6,7-tetrahydropyrazolo[1,5-a]pyridin-4-ol] is over 25 µM; for `O[C@@H]1COCC[C@H]1[C@@H]1c2c(F)cccc2-c2cncn21` (single isomer, unassigned) [Example 120d] it is over 25 µM. As for `CC1(C)OCC(C2c3ccccc3-c3cncn32)C1O` (single isomer, unassigned) [Example 85f], the 50% effective concentration (EC50) is over 25 µM.

For the molecule `OC1(C2c3ccccc3-c3cncn32)CCOC1` (single isomer, unassigned) [Example 129c], the EC50 amounted to 4.5 µM. The figure for `OC1c2cnncc2CCC1C1c2ccccc2-c2cncn21` (single isomer, unassigned) [Example 112g] is 0.27 µM; for `OC1CCC1C1c2ccccc2-c2cncn21` (single isomer, unassigned) [Example 01h] it is 16 µM.

As for `O=S1(=O)CC(O)C(C2c3ccccc3-c3cncn32)C1` (single isomer, unassigned) [Example 38a], the EC50 was 16 µM. As to `CCS(=O)(=O)N1CC(O)C(C2c3ccccc3-c3cncn32)C1` (single isomer, unassigned) [Example 40a], the EC50 worked out at 6.4 µM. `CCS(=O)(=O)N1CC[C@H]([C@@H]2c3ccccc3-c3cncn32)[C@@H](O)C1` [Example 16b, (3R,4R)-1-(ethylsulfonyl)-4-((R)-5H-imidazo[5,1-a]isoindol-5-yl)piperidin-3-ol]: the 50% effective concentration (EC50) was over 25 µM. The figure for `Cc1nc2c(o1)CCC(C1c3ccccc3-c3cncn31)C2O` (single isomer, unassigned) [Example 178b] is over 25 µM; for `OC1c2nonc2CCC1C1c2ccccc2-c2cncn21` (single isomer, unassigned) [Example 163a] it is 0.1 µM. Take `OC1c2nccn2CCC1C1c2ccccc2-c2cncn21` (single isomer, unassigned) [Example 88e]: the concentration for a half-maximal effect (EC50) is over 25 µM.

Consider `OC1COCCC1C1c2ccccc2-c2cncn21` (single isomer, unassigned) [Example 06h], for which the EC50 was over 25 µM. The figure for `OC1C(C2c3ccccc3-c3cncn32)CCC12CCOCC2` (single isomer, unassigned) [Example 68g] is over 25 µM; for `CS(=O)(=O)N1CCC2(CCC(C3c4ccccc4-c4cncn43)C2O)CC1` (single isomer, unassigned) [Example 180d] it is over 25 µM; for `OC1COCCC1C1c2c(Cl)cccc2-c2cncn21` (single isomer, unassigned) [Example 69-1d] it is 4.6 µM. As for `OC(C1c2ccccc2-c2cncn21)C1(F)CC1` (single isomer, unassigned) [Example 154d], the EC50 came to 13 µM. For `OC1CCC(F)(F)CC1C1c2ccccc2-c2cncn21` (single isomer, unassigned) [Example 18h, 4,4-difluoro-2-(5H-imidazo[5,1-a]isoindol-5-yl)cyclohexan-1-ol], the EC50 came to 13 µM.

On to `O=S(=O)(C1CC1)N1CC[C@@H](O)[C@H]([C@@H]2c3ccccc3-c3cncn32)C1` (single isomer, unassigned) [Example 70c], for which the EC50 is over 25 µM. The figure for `OC1C(C2c3ccc(F)cc3-c3cncn32)CC12CCOCC2` (single isomer, unassigned) [Example 109f] is over 25 µM.

As for `CS(=O)(=O)N1CCC2(CC1)CC(C1c3ccccc3-c3cncn31)C2O` (single isomer, unassigned) [Example 179c], the EC50 is over 25 µM.
